In patent publication US11072617B2, “Bicyclic sulfones and sulfoxides and methods of use thereof” (Genentech, Inc., priority 2017, dated 2021) one finds Ki data, which are given here for 38 compounds.

The target in the assay is human RIP1 kinase domain (2-375) (Homo sapiens (Human), UniProt Q13546). Nature of the assay: RIP1 kinase inhibition biochemical assay (Transcreener ADP, fluorescence polarization). Particulars: Ki app from tight-binding Morrison equation; 50 nM enzyme, 50 uM ATP, 2 hours incubation. As for the experimental part:
RIP1 Kinase Inhibition Assays (Biochemical Assay)
The compounds of the present invention were tested for their capacity to inhibit RIP1K activity as described below.
The ability of the receptor interacting protein kinase (RIPK1) to catalyze the hydrolysis of adenosine-5′-triphosphate (ATP) is monitored using the Transcreener ADP (adenosine-5′-diphosphate) assay (BellBrook Labs). Purified human RIP1 kinase domain (2-375) (50 nM) derived from a baculovirus-infected insect cell expression system is incubated with test compounds for 2 hours in 50 mM Hepes buffer (pH 7.5) containing 30 mM MgCl2, 1 mM dithiothreitol, 50 uM ATP, 0.002% Brij-35, and 0.5% dimethyl sulfoxide (DMSO). Reactions are quenched by the addition of 1× Bell Brooks Stop buffer B (20 mM Hepes (ph7.5), 40 mM ethylenediaminetetraacetic acid and 0.02% Brij-35) containing an additional 12 mM EDTA and 55 ug/mL ADP2 antibody and 4 nM ADP-AlexaFluor® 633 tracer. The tracer bound to the antibody is displaced by the ADP generated during the RIP1K reaction, which causes a decrease in fluorescence polarization that is measured by laser excitation at 633 nm with a FP microplate reader M1000. Fractional activity was plotted against test article concentration. Using Genedata Screener software (Genedata; Basel, Switzerland), the data were fit to the tight-binding apparent inhibition constant (Ki^app) Morrison equation [Williams, J. W. and Morrison, J. F. (1979) The kinetics of reversible tight-binding inhibition. Methods Enzymol 63: 437-67]. The following equation was used to calculate fractional activity and Ki^app:
[formula] where [E]T and [I]T are the total concentrations of active enzyme and test article, respectively.
Exemplary compounds of the present invention are provided in Table 1 along with their physiochemical characterization and in vitro RIP1 kinase inhibitory activity data. “Method” in the first column of each table refers to the synthetic method(s) used to prepare each compound as shown in the Examples above. In certain examples, chiral column retention times (min) are provided for certain stereoisomers. Unless otherwise specified, the stereochemistry shown in each structure represents relative configuration of a single stereoisomer, and absolute configuration (i.e., “R” and/or “S”) is arbitrarily assigned. In some embodiments, where the Method is described to include the separation of stereoisomers, a single stereoisomer of a compound of Table 1 is provided.

pKi: −log10 of the molar value.

Sequence of human RIP1 kinase domain (2-375) (Q13546 2-375): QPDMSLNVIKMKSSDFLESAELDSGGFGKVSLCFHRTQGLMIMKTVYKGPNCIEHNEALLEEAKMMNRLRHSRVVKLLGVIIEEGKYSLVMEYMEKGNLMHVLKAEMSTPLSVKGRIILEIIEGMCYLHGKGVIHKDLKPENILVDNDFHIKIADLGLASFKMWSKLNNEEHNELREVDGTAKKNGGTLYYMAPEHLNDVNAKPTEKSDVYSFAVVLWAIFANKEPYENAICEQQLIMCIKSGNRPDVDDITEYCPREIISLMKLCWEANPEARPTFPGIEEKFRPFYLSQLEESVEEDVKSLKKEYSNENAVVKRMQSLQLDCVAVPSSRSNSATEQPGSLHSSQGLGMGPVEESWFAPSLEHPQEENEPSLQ

`[O-][S+](CC(F)F)c1nc2n(n1)[C@H](c1ccccc1)C[C@@H]2F` (stereo partly drawn) [Example 148, (5S,7S)-2-(2,2-difluoroethylsulfinyl)-7-fluoro-5-phenyl-6,7-dihydro-5H-pyrrolo[1,2-b][1,2,4]triazole]: the pKi was 8.15.
Then `O=S(=O)(c1nc2n(n1)[C@H](c1ccccc1)C[C@@H]2F)[C@@H]1C[C@H]1F` (single isomer, unassigned) [Example 145], with 8.30; and `O=S(=O)(c1nc2n(n1)[C@H](c1ccccc1)C[C@@H]2F)[C@H]1C[C@H](OC(F)F)C1` [Example 213, (5S,7S)-2-trans-[3-(difluoromethoxy)cyclobutyl]sulfonyl-7-fluoro-5-phenyl-6,7-dihydro-5H-pyrrolo[1,2-b][1,2,4]triazole], with 8.22; and `[O-][S+](c1nc2n(n1)C(c1cc(F)cc(F)c1)CC2)C(F)F` (centres unmarked) [Example 176, 2-(Difluoromethylsulfinyl)-5-(3,5-difluorophenyl)-6,7-dihydro-5H-pyrrolo[1,2-b][1,2,4]triazole], with 6.96.
Then `O=S(=O)(c1nc2n(n1)[C@H](c1cccc(F)c1F)C[C@@H]2F)C(F)F` (single isomer, unassigned) [Example 68], with 8.22; and `O=S(=O)(c1nc2n(n1)[C@H](c1cccc(F)c1F)C[C@@H]2F)[C@@H]1CC1(F)F` (single isomer, unassigned) [Example 128], with 8.00.
The result for `O=S(=O)(c1nc2n(n1)[C@H](c1ccccc1)C[C@@H]2F)C1CC1(F)F` (mixture of isomers) [Example 118, (5S,7S)-2-((2,2-difluorocyclopropyl)sulfonyl)-7-fluoro-5-phenyl-6,7-dihydro-5H-pyrrolo[1,2-b][1,2,4]triazole] reads 8.40.
Turning to `O=S(=O)(c1nc2n(n1)[C@H](c1ccccc1Cl)C[C@@H]2F)[C@@H]1CC1(F)F` (single isomer, unassigned) [Example 125], the negative logarithm of the Ki (pKi) was more than 8.30.
The result for `O=S(=O)(c1nc2n(n1)[C@H](c1cc(F)cc(F)c1)C[C@@H]2F)C1CC1` (single isomer, unassigned) [Example 42] reads more than 8.30; that for `C[C@@H](F)S(=O)(=O)c1nc2n(n1)[C@H](c1ccccc1)C[C@@H]2F` (single isomer, unassigned) [Example 159], 7.82; that for `[O-][S+](c1nc2n(n1)[C@H](c1cccc(F)c1)C[C@@H]2F)C(F)F` (stereo partly drawn) [Example 54, (5S,7S)-2-((difluoromethyl)sulfinyl)-7-fluoro-5-(3-fluorophenyl)-6,7-dihydro-5H-pyrrolo[1,2-b][1,2,4]triazole], 7.77.
On to `N#CC1(S(=O)(=O)c2nc3n(n2)[C@H](c2ccccc2)C[C@@H]3F)CC1` (single isomer, unassigned) [Example 157], for which the pKi is 7.64.
`[O-][S@@+](CF)c1nc2n(n1)[C@H](c1cc(F)ccc1F)C[C@@H]2F` (single isomer, unassigned) [Example 78]: the pKi is more than 8.30.
With `O=S(=O)(c1nc2n(n1)[C@H](c1cccc(F)c1F)C[C@@H]2F)[C@H]1C[C@@H]1F` (single isomer, unassigned) [Example 217], the pKi was 8.22.
In turn, `O=S(=O)(c1ccccc1)c1nc2n(n1)[C@H](c1ccccc1)C[C@@H]2F` (single isomer, unassigned) [Example 26] had a negative logarithm of the Ki (pKi) of 5.49.
The result for `[O-][S+](c1nc2n(n1)C(c1ccccc1)CC2)C(F)(F)F` (centres unmarked) [Example 10, 5-phenyl-2-(trifluoromethylsulfinyl)-6,7-dihydro-5H-pyrrolo[1,2-b][1,2,4]triazole] reads 7.05; that for `O=S(=O)(c1nc2n(n1)[C@H](c1cccc(Cl)c1F)C[C@@H]2F)[C@@H]1C[C@H]1F` [Example 208, (5S,7S)-5-(3-chloro-2-fluoro-phenyl)-7-fluoro-2-[(1R,2R)-2-fluorocyclopropyl]sulfonyl-6,7-dihydro-5H-pyrrolo[1,2-b][1,2,4]triazole], 8.15; that for `N#CCSc1nc2n(n1)[C@H](c1ccccc1)C[C@@H]2F` (single isomer, unassigned) [Example 89], 8.00.
Then `O=S(=O)(c1nc2n(n1)[C@H](c1cc(Cl)ccc1F)C[C@@H]2F)C1CC1F` (stereo in doubt) [Example 218, (5S,7S)-5-(5-chloro-2-fluoro-phenyl)-7-fluoro-2-[(1R,2R)-2-fluorocyclopropyl]sulfonyl-6,7-dihydro-5H-pyrrolo[1,2-b][1,2,4]triazole], with 6.85; and `O=S(=O)(c1nc2n(n1)[C@H](c1cc(F)ccc1F)C[C@@H]2F)C1CC1(F)F` (single isomer, unassigned) [Example 122], with 7.92.
The result for `O=S(=O)(c1nc2n(n1)[C@H](c1cccc(F)c1F)C[C@@H]2F)[C@H]1C[C@H](F)C1` [Example 204, (5S,7S)-5-(2,3-difluorophenyl)-7-fluoro-2-trans-(3-fluorocyclobutyl)sulfonyl-6,7-dihydro-5H-pyrrolo[1,2-b][1,2,4]triazole] reads 7.80; that for `O=S(=O)(c1nc2n(n1)[C@H](c1ccccc1F)C[C@@H]2F)C1CC1` [Example 33, (5S,7S)-2-cyclopropylsulfonyl-7-fluoro-5-(2-fluorophenyl)-6,7-dihydro-5H-pyrrolo[1,2-b][1,2,4]triazole], 8.30; that for `[O-][S+](c1nc2n(n1)[C@H](c1ccccc1)C[C@@H]2F)C1CC1(F)F` (stereo partly drawn) [Example 117, (5S,7S)-2-((2,2-difluorocyclopropyl)sulfinyl)-7-fluoro-5-phenyl-6,7-dihydro-5H-pyrrolo[1,2-b][1,2,4]triazole], 7.92.
Turning to `CCCS(=O)(=O)c1nc2n(n1)[C@H](c1ccccc1)C[C@@H]2F` (single isomer, unassigned) [Example 161], the negative logarithm of the Ki (pKi) is 7.59.
With `O=S(=O)(c1nc2n(n1)[C@H](c1cccc(F)c1F)C[C@@H]2F)C1CC1` (single isomer, unassigned) [Example 40], the negative logarithm of the Ki (pKi) is 8.30.
Then `O=S(=O)(c1nc2n(n1)[C@H](c1cc(F)cc(Cl)c1)C[C@@H]2F)C1CC1` (single isomer, unassigned) [Example 214], with 7.54.
The result for `[O-][S@@+](c1nc2n(n1)[C@H](c1ccccc1F)C[C@@H]2F)C(F)F` (single isomer, unassigned) [Example 51] reads 6.85.
Then `[O-][S@@+](CF)c1nc2n(n1)[C@H](c1ccccc1Cl)C[C@@H]2F` (single isomer, unassigned) [Example 86], with more than 8.30.
The compound `CC(C)S(=O)(=O)c1nc2n(n1)[C@H](c1ccccc1)C[C@@H]2F` (single isomer, unassigned) [Example 110] gave a pKi of 7.85.
Then `O=S(=O)(CCOC(F)F)c1nc2n(n1)[C@H](c1ccccc1)C[C@@H]2F` (single isomer, unassigned) [Example 198], with 7.17.
Then `[O-][S+](CC(F)(F)F)c1nc2n(n1)[C@H](c1ccccc1)C[C@@H]2F` (stereo partly drawn) [Example 113, (5S,7S)-7-fluoro-5-phenyl-2-(2,2,2-trifluoroethylsulfinyl)-6,7-dihydro-5H-pyrrolo[1,2-b][1,2,4]triazole], with 7.55.
The result for `[O-][S@@+](CF)c1nc2n(n1)[C@H](c1cc(F)cc(F)c1)C[C@@H]2F` (single isomer, unassigned) [Example 84] reads more than 8.30; that for `N#CC1CC1S(=O)(=O)c1nc2n(n1)[C@H](c1ccccc1)C[C@@H]2F` (stereo in doubt) [Example 221, (1S,2S)-2-[[(5S,7S)-7-fluoro-5-phenyl-6,7-dihydro-5H-pyrrolo[1,2-b][1,2,4]triazol-2-yl]sulfonyl]cyclopropanecarbonitrile], 7.74.
Consider `N#CC[S@@+]([O-])c1nc2n(n1)[C@H](c1ccccc1Cl)C[C@@H]2F` (single isomer, unassigned) [Example 94], for which the pKi was 8.40.
For `O=S(=O)(c1nc2n(n1)[C@H](c1cccc(F)c1)C[C@@H]2F)[C@H]1C[C@@H](O)C1` (single isomer, unassigned) [Example 195], the negative-log Ki (pKi) was 6.34.
Then `N#CC[S@+]([O-])c1nc2n(n1)[C@H](c1ccc(F)cc1)C[C@@H]2F` (single isomer, unassigned) [Example 99], with 6.28.
The result for `O=S(=O)(c1nc2n(n1)[C@H](c1ccccc1)C[C@@H]2F)[C@H]1C[C@@H](CF)C1` (single isomer, unassigned) [Example 169] reads 7.28; that for `[O-][S@+](c1nc2n(n1)[C@H](c1ccccc1F)C[C@@H]2F)C(F)F` (single isomer, unassigned) [Example 52], 8.52.
